US12594271B2, “Combination therapy for cancer” (Health Research, Inc., priority 2019, dated 2026)
“Also recorded” adds a separate entry of the source.

Columns and labels:
[1] = system: IRF8; test: qRT-PCR in Lin- BM cells cultured 2 days; type: cell-based, mouse; settings: bone marrow cells cultured with BRQ, normalized to vehicle
Procedure: (§1) FIG. 2. […] (A) MDSCs were produced in vitro from mouse bone marrow cells using GM-CSF and G-CSF±BRQ (1 μM) or ATRA (10 μM) at the start of the 4-day culture. Cells tested for their ability to inhibit T cell proliferation (1:1 ratio), as in FIG. 5. Fresh BM=Uncultured bone marrow cells. (B) Similar to A, except that uridine (200 μM) was added to rescue the effect of BRQ. (C) Expression of IRF8 (upper) or SLFN4 (lower) was analyzed by qRT-PCR in Lin^− BM cells cultured as in A for 2 days. Data normalized to the vehicle.

[2] = system: SLFN4; test: qRT-PCR in Lin- BM cells cultured 2 days; type: cell-based, mouse; settings: bone marrow cells cultured with BRQ, normalized to vehicle
Procedure: as §1

[3] = system: myeloid cells and T cells of 4T1 tumor-bearing mice; test: Flow cytometry of spleen, bone marrow and tumor cells from 4T1 tumor-bearing mice; type: in vivo
Procedure: (§2) FIG. 1. […] (A) 4T1 growth in mice treated daily with BRQ (10 mg/kg, i.p.), anti-PD-1 ([…], i.p. at the indicated 3 or 4 times) or both agents. n=5 mice/group/experiment for upper and lower graphs; *P<0.01 against single-agent treatments. B-D, data shown are for analysis of A, upper graph. (B) Spontaneous metastatic lung counts; *P<0.01. Similar patterns seen in the 2nd experiment (avg. #mets): vehicle=12; BRQ=1; αPD-1=5; combo=1. (C) Splenic granulocytic (CD11b^+Ly6C^loLy6G^+) or monocytic (CD11b^+Ly6C^hiLy6G^−) numbers in non-tumor-bearing (NTB) or tumor-bearing mice were converted to a ratio for group-by-group comparison; *P<0.03. (D) Splenic CD3^+ T cell numbers in tumor-bearing mice. (E) Splenic CD8^+ T cells in A (lower graph) were assayed based on differential expression of CD44:naïve ([…]) vs. effector/central memory (hi) phenotypes. *P<0.03. Data reported as a ratio to indicate a rising memory pool. Data in B-E are at endpoint; ns, not significant.
(§3) Treatment of Tumor-Bearing Mice Alters Surface Phenotype of Myeloid Cells. […] Female BALB/c or C57BL/6 mice were orthotopically implanted with 4T1 or AT-3 mammary tumor cells, respectively, and were monitored 3 times weekly for tumor growth. When tumors became measurable (indicated by the arrow), BRQ was administered daily (10 mg/kg intraperitoneally), and at endpoint the BM cells or spleens were collected for flow cytometric analysis for the expression (i.e., percentage or MFI value) of the indicated cell surface markers (FIGS. 13-15). We extended our in vitro studies with BRQ to […] to determine the impact of BRQ on MDSC maturation. To that end, mice bearing orthotopically implanted mammary tumors were treated with or without BRQ in vivo using a similarly previously reported dose, frequency and schedule (Sykes et al. Cell 167:171-186, 2016). The first tumor model chosen was 4T1, which is an aggressive mammary tumor cell line that induces a robust MDSC response largely comprised of PMN-MDSCs.
The upper panels of FIG. 14 are representative flow cytometry plots of the non-tumor-bearing (NTB) or tumor-bearing cohorts without (vehicle) or with BRQ. The middle panel histogram represents CD101 expression on the gated (boxed) populations of the upper panels. In this case, the far-right histograms refer to the gated-boxed right dot plot (for the PMN or granulocytic subset), whereas the gated-boxed left histogram refers to the gated-boxed upper left dot plot (for the monocytic subset). […] FIG. 15 refers to the quantification of the CD101 data from non-tumor-bearing mice or tumor-bearing mice with or without BRQ, based on both the CD101 MFI values and the percentages of CD101^+ (or high-expressing) cells reflecting the monocytic subset (upper left histogram and middle left table) or the PMN-MDSC subset (upper right histogram and middle right table). The quantification appears in the lower left and right graphs. Each point represents an individual mouse.
Effect of Treatment of Tumor-Bearing Mice with BRQ on the Efficacy of Anti-Tumor Immunotherapy. […] At endpoint, BM cells or spleens were collected and analyzed for the indicated populations by flow cytometry. These experiments sought to determine whether BRQ can act in the bone marrow environment. […] The frequency of these cells approached levels seen in the non-tumor-bearing controls. […] Moreover, analysis of the systemic impact of BRQ on T cell numbers and their activation/memory state was performed on splenic population at endpoint (FIG. 20). […] This analysis at the time was not performed on cohorts treated with anti-PD-1 mAb alone or the combination, since the intent was to focus on the effect of BRQ on T cell numbers and their phenotypic states.
Treatment of Tumor-Bearing Mice with BRQ Increases the Proliferative Capacity and Activation of Intra-Tumoral T Cells. Experimental design is as described in FIG. 12. […]

[4] = system: AT-3 tumor cells; test: AT-3 orthotopic mammary tumor model: tumor growth and splenic flow cytometry; type: in vivo, mice
Procedure: as §3
Female C57BL/6 mice were orthotopically implanted with AT-3 tumor cells and were monitored 3 times weekly for tumor growth. When tumors became measurable, BRQ was administered daily (10 mg/kg intraperitoneally), and at endpoint the spleens were collected and analyzed by flow cytometry for the indicated cell surface markers. Tumor growth is shown in the upper panel of FIG. 16 while representative flow cytometry data is shown in the lower panel.

[5] = system: 4T1 tumors cells; test: 4T1 orthotopic mammary tumor model: tumor growth and spontaneous lung metastases; type: in vivo, mice; settings: BRQ 10 mg/kg i.p. daily
Procedure: as §2, with “Data in B-E are at endpoint; ns, not significant.” left out
Treatment of Tumor-Bearing Mice Alters Surface Phenotype of Myeloid Cells. […] Female BALB/c or C57BL/6 mice were orthotopically implanted with 4T1 or AT-3 mammary tumor cells, respectively, and were monitored 3 times weekly for tumor growth. […]
Effect of Treatment of Tumor-Bearing Mice with BRQ on the Efficacy of Anti-Tumor Immunotherapy. […] At endpoint, BM cells or spleens were collected and analyzed for the indicated populations by flow cytometry. […]

[6] = 4T1, BRQ 10 mg/kg i.p. daily, spleen
[7] = 4T1 tumor-bearing mice, endpoint

For `Cc1c(-c2ccc(-c3ccccc3F)cc2)nc2ccc(F)cc2c1C(=O)O` [BRQ, 6-Fluoro-2-(2′-fluoro-[1,1′-biphenyl]-4-yl)-3-methylquinoline-4-carboxylic acid], the IRF8 expression [1] was “increase in IRF8 expression”, the SLFN4 expression [2] was “reciprocal decrease in SLFN4 expression” and the “CD101 expression on splenic granulocytic populations” value ([3]; 4T1, BRQ 10 mg/kg i.p. daily) was “significantly increased CD101 expression”. For the same compound, the “accumulation of the granulocytic population in the spleen” value ([3]; 4T1, BRQ 10 mg/kg i.p. daily) was “did not significantly alter”, the “Ly6C expression on granulocytic cells” value [3, 6] was “significantly higher expression of the cell surface Ly6C” and the “Ly6G expression on granulocytic cells” value [3, 6] was “trended upward but did not reach statistical significance”. For the same compound, the “tumor-driven expansion of myeloid progenitor populations GMP or GP in bone marrow” value ([3]; 4T1, endpoint) was “reduced tumor-driven expansion”, the “accumulation of CD11b+Gr-1+ cells in bone marrow” value ([3]; 4T1, vs vehicle controls) was “reduced the accumulation of CD11b^+Gr-1^+ cells” and the “splenic granulocyte to monocyte ratio” value ([3]; 4T1 tumor-bearing mice vs non-tumor-bearing controls, endpoint) was “significantly altered the granulocyte to monocyte ratio resembling the non-tumor-bearing controls”. The “splenic CD3+ T cell numbers” value [3, 7] was “did not alter; also recorded: no negative effect”, the “splenic CD8+ T cell memory populations (ratio of memory to naïve T cells by CD44)” value [3, 7] was “did not alter; also recorded: no negative effect” and the “CD44 expression on intratumoral CD8+ and CD4+ T cells” value ([3]; tumor tissue at endpoint) was “Increases in CD44 expression were similarly observed”. For the same compound, the “proliferative capacity of intratumoral CD8+ and CD4+ T cells (percentages of Ki-67+ cells)” value ([3]; tumor tissue at endpoint) was “significant increases in the proliferative capacity”, the “Ly6C expression on the granulocytic (PMN-MDSC) subset” value ([4]; AT-3-bearing mice, spleen) was “significantly increased the expression of Ly6C” and the “Ly6C or Ly6G expression on the monocytic subset” value ([4]; AT-3-bearing mice, spleen) was “no significant changes”. For the same compound, the “Ly6G expression on the surface of granulocytes” value ([4]; AT-3-bearing mice, spleen) was “increased the expression of Ly6G”, the AT-3 tumor growth ([4]; C57BL/6 mice, BRQ 10 mg/kg i.p. daily) was “minimal effects on inhibiting tumor growth” and the “Spontaneous metastatic lung counts (avg. #mets)” value ([5]; 2nd experiment, anti-PD-1 200 μs i.p. 3 or 4 times, endpoint) was 1. For the same compound, the 4T1 tumor growth ([5]; BALB/c mice, anti-PD-1 200 μg i.p.) was “little effect on tumor growth; also recorded: only a nominal effect on primary tumor growth”.
